Assays:
[1] = tested on: PMM2-CDG patient (P5); experiment: Fructose tolerance test, urine polyols; type: in vivo, human; settings: P5, fasting, 1 g/kg oral fructose
Method: Fructose tolerance test was performed in P5 according to the standard clinical protocol at fasting state with 1 g/kg oral fructose, and the first voided urine was collected.

[2] = tested on: patient and control fibroblasts; experiment: 13C6-fructose incubation of fibroblasts, polyol and hexose pools; type: cell-based, human; settings: 0.15 mM 13C6-fructose, 5.5 mM glucose
Method: Next, the influence of dietary fructose on the urine polyol levels in PMM2-CDG was evaluated. Fructose has become one of the major sources of energy in the western diet and has been associated with numerous disorders such as diabetes, hypertension, obesity, etc. Peripheral fasting fructose levels range between 0.01-0.07 mM and can increase by 5-fold after consumption of a fructose rich meal. […] The possibility of fructose contributing to the polyols increase seen in PMM2-CDG was therefore tested. First, a fructose tolerance test in individuals with PMM2-CDG (P5) was performed. […] Then, to investigate the contribution of fructose in intracellular polyol accumulation, patient and control fibroblasts were incubated in the presence of 5.5 mM glucose and 0.15 mM (average blood fructose concentration upon fructose rich meal)^13C6-fructose and medium containing dialyzed FBS (FIG. 2A).

SMILES: O=C(CO)[C@@H](O)[C@H](O)[C@H](O)CO [fructose]
- fold increase of urine mannitol after fructose tolerance test [1]: 3 times
- fold increase of urine sorbitol after fructose tolerance test [1]: approximately 7 times

SMILES: OCC1(O)OC[C@@H](O)[C@@H](O)[C@@H]1O (some centres unmarked) [^13C6-fructose]
- Fractional Contribution (FC) in total hexose pool ([2]; PMM2-CDG and controls): 4%
- hexose pool abundance ([2]; dialyzed FBS): increase
- polyol pool abundance ([2]; dialyzed FBS): increase

— patent publication US20260335294A1, “TREATING CONGENITAL DISORDERS OF GLYCOSYLATION” (Mayo Foundation for Medical Education and Research, priority 2022, published 2026)
